Measurements reported in patent publication US6448006B1, “Methods and compositions for reducing bacterial tolerance to antibacterials disinfectants and organic solvents” (priority 1997, dated 2002).
Read-outs that look alike come from different tables or passages of the source.

What was measured:
[1] = system: E. coli strains bearing mar, soxS or robA plasmids; assay type: cell-based
From the text: Organic solvent tolerance mediated by the marA, soxS, robA and acrAB loci of E. coli is described in White et al. (J. Bacteriol. 179:6122-6126, 1997).

[2] = values in parentheses in column heads; cited from earlier work

## C1CCCCC1 [cyclohexane]
[1]; AG100 (wild-type), no plasmid
  Growth in presence of organic solvent: −
[1]; AG100, plasmid pMAK-TU1
  Growth in presence of organic solvent: −
[1]; AG100, plasmid pMAK-TU1 & TU2
  Growth in presence of organic solvent: + +
[1]; AG100, plasmid pMAK-TU2
  Growth in presence of organic solvent: + ((+) visible growth(≦100 colonies))
[1]; AG100, plasmid pSMarAB
  Growth in presence of organic solvent: + ((+) visible growth(≦100 colonies))
[1]; AG100, plasmid pSRob
  Growth in presence of organic solvent: + +
[1]; AG100, plasmid pSXS
  Growth in presence of organic solvent: + +
[1]; AG100-A (ΔacrAB), no plasmid
  Growth in presence of organic solvent: −
[1]; AG100-B (acrR mutant), no plasmid
  Growth in presence of organic solvent: + ((+) visible growth(≦100 colonies))
[1]; AG100K (marCORAB::kan), no plasmid
  Growth in presence of organic solvent: −
[1]; AG100K, plasmid pMAK-TU1
  Growth in presence of organic solvent: −
[1]; AG100K, plasmid pMAK-TU2
  Growth in presence of organic solvent: + ((+) visible growth(≦100 colonies))
[1]; AG100K, plasmid pMAK-TUI & TU2
  Growth in presence of organic solvent: + +
[1]; AG100K, plasmid pSMarAB
  Growth in presence of organic solvent: + ((+) visible growth(≦100 colonies))
[1]; AG100K, plasmid pSRob
  Growth in presence of organic solvent: + +
[1]; AG100K, plasmid pSXS
  Growth in presence of organic solvent: + +
[1]; AG102 (marR mutation), no plasmid
  Growth in presence of organic solvent: + +
[1]; AG102-A (marRl, ΔacrAB), no plasmid
  Growth in presence of organic solvent: −
[1]; AG102-A, plasmid pSMarAB
  Growth in presence of organic solvent: −
[1]; AG102-A, plasmid pSRob
  Growth in presence of organic solvent: −
[1]; AG102-A, plasmid pSXS
  Growth in presence of organic solvent: −
[1]; DJ901 (ΔsoxRS), no plasmid
  Growth in presence of organic solvent: −
[1]; DJ901, plasmid pMAK-TU1
  Growth in presence of organic solvent: −
[1]; DJ901, plasmid pMAK-TU1 & TU2
  Growth in presence of organic solvent: + +
[1]; DJ901, plasmid pMAK-TU2
  Growth in presence of organic solvent: + ((+) visible growth(≦100 colonies))
[1]; DJ901, plasmid pSMarAB
  Growth in presence of organic solvent: + ((+) visible growth(≦100 colonies))
[1]; DJ901, plasmid pSRob
  Growth in presence of organic solvent: + +
[1]; DJ901, plasmid pSXS
  Growth in presence of organic solvent: + +
[1]; GC4468 (wild-type), no plasmid
  Growth in presence of organic solvent: −
[1]; GC4468, plasmid pMAK-TU1
  Growth in presence of organic solvent: −
[1]; GC4468, plasmid pMAK-TU1 & TU2
  Growth in presence of organic solvent: + +
[1]; GC4468, plasmid pMAK-TU2
  Growth in presence of organic solvent: + ((+) visible growth(≦100 colonies))
[1]; GC4468, plasmid pSMarAB
  Growth in presence of organic solvent: + ((+) visible growth(≦100 colonies))
[1]; GC4468, plasmid pSRob
  Growth in presence of organic solvent: + +
[1]; GC4468, plasmid pSXS
  Growth in presence of organic solvent: + +
[1]; JHC1069 (cfxB1), no plasmid
  Growth in presence of organic solvent: + +
[1]; JTG1078 (soxR105), no plasmid
  Growth in presence of organic solvent: + +
[1]; MCH164 (Δmar), no plasmid
  Growth in presence of organic solvent: −
[1]; MCH164, plasmid pMAK-TU1
  Growth in presence of organic solvent: −
[1]; MCH164, plasmid pMAK-TU1 & TU2
  Growth in presence of organic solvent: + +
[1]; MCH164, plasmid pMAK-TU2
  Growth in presence of organic solvent: −
[1]; MCH164, plasmid pSMarAB
  Growth in presence of organic solvent: −
[1]; MCH164, plasmid pSRob
  Growth in presence of organic solvent: −
[1]; MCH164, plasmid pSXS
  Growth in presence of organic solvent: −
[1]; RA4468 (robA::kan), no plasmid
  Growth in presence of organic solvent: −
[1]; RA4468, plasmid pMAK-TU1
  Growth in presence of organic solvent: −
[1]; RA4468, plasmid pMAK-TU1 & TU2
  Growth in presence of organic solvent: + +
[1]; RA4468, plasmid pMAK-TU2
  Growth in presence of organic solvent: + ((+) visible growth(≦100 colonies))
[1]; RA4468, plasmid pSMarAB
  Growth in presence of organic solvent: + ((+) visible growth(≦100 colonies))
[1]; RA4468, plasmid pSRob
  Growth in presence of organic solvent: + +
[1]; RA4468, plasmid pSXS
  Growth in presence of organic solvent: + +
[2]
  log Pow: cyclohexane (3.4)
